Reference: patent US5756527A, “Imidazole derivatives useful as modulators of multi drug resistances” (Ontogen Corporation, priority 1997, dated 1998)

What was measured:
[1] = system: CEM/VLB1000; assay: [3H]-vinblastine (VLB) accumulation assay; format: cell-based; conditions: midpoint of minimum and maximum increase in accumulation of 3H-vinblastine (275 nM), 3 hours at 37° C.
Protocol: ^3 H-vinblastine accumulation was also measured in the CEM/VLB1000 cell line. Corning Easy-Wash 96 well plates were pretreated with PBS and 1% BSA for 60 minutes and then removed. CEM/VLB1000 cells were seeded at 2×10^5, 40 μL volume. Plates were incubated at 37° C. for 30-60 minutes prior to use. The reference reversing agent, verapamil, or the compound of the present invention was added to the well followed by addition of media containing ^3 H-vinblastine (final concentration=275nM). Plates were allowed to incubate for 3 hours at 37° C. Cells were harvested onto pretreated Wallace filtermats A (pretreated with 0.1% polyethyleneimine) using a TomTek harvester-96. After filtering, the filtermats were allowed to dry completely. Meltix B scintillant was then added to the filtermats. The filters were then placed in a 90° C. oven for approximately 3-5 minutes and then removed. Scintillant was allowed to solidify on the filtermats. Filtermats were then placed in sample bags and read on a Wallace BetaPlate scintillation counter. The effects of compounds of the present invention in the cytotoxicity potentiation assays and vinblastine (VLB) accumulation assay are given in the Table below:
^2 Values presented are the midpoint (EC50) of the minimum and
maximum increase in accumulation of ^3 Hvinblastine caused by the
specific compound of the present invention.

[2] = system: CEM/VLB1000; assay: Cytotoxicity potentiation (alamar blue) of vinblastine in multidrug-resistant cells; format: cell-based; conditions: midpoint of minimum and maximum cytotoxicity induced by 3-5 μg/mL vinblastine and compound, 48 h
Protocol: Multidrug-resistant cell lines are easily obtainable for in vitro determination of drug sensitization by compounds of the present invention. In vitro potentiation of antineoplastic cytotoxicity by the imidazole derivatives of the present invention was measured in both CEM/VLB1000 and SK/VLB1000 cell lines. The multidrug resistant cell lines were obtained from Dr. Victor Ling, Ontario Cancer Institute, Toronto, Canada. The CEM/VLB 1000 cell line was maintained as a suspension in minimum essential medium supplemented with 10% fetal bovine serum in a humidied atmosphere of 95% air and 5% CO2 while the SK/VLB 1000 cell line was maintained as adherent cells using the identical medium conditions as the CEM cells. The CEM/VLB 1000 cells were seeded at a density of 5×10^4 cells/well in a 96 well microtiter plate while the SK/VLB 1000 cell line was seeded at a density of 2,500 cells/well after trypsinization. Vinblastine (5 μg/mL, for the CEM cells) or Taxol (3 μg/mL, for the SK cells) and compound (0.01 to 50 μM) were added directly to the wells. After an incubation of 48 hours in presence of drug, alamar blue (B. Page et al., Int. J. Oncol. 3: 473-476, 1993) was added (10 μL to the 200 μL cell suspension) for a period of 24 hours after which the fluorescence (excitation=530 nm, emission=590 nm) was read for each well using a "CytoFluor" microtiter fluorometer plate reader. This assay measures the effective concentration of compound necessary to enhance the cytotoxicity (EC50) of vinblastine in the MDR cell line.
^1 Values presented are the midpoint (EC50) of the minimum and
maximum cytotoxicity induced by 3-5 μg/mL vinblastine and the specific
compound of the present invention.

SMILES	EC50 [1] [nM]	EC50 [2] [nM]
CNc1ccc(-c2[nH]c(-c3ccc(/C=C/C(=O)OC)cc3)nc2-c2ccc(NC(C)C)cc2)cc1 [Example 47, 2-[4-(trans-methylpropenoate)phenyl]-4-[(4-N-i-propylamino)phenyl]-5-[(4-N-methylamino)phenyl] imidazole]	870	194
CNc1ccc(-c2[nH]c(-c3ccc(/C=C/C(=O)OC)cc3)nc2-c2ccc(NC(C)(C)C)cc2)cc1 [Example 48, 2-[4-(trans-methylpropenoate)phenyl]-4-[(4-N-t-butylamino)phenyl]-5-[(4-N-methylamino)phenyl] imidazole]	1200	240
CCN(CC)c1ccc(-c2nc(-c3ccc(/C=C/C(=O)OC)cc3)[nH]c2-c2ccc(N(CC)CC)cc2)cc1 [Example 49, 2-[4-(trans-methylpropenoate)phenyl]-4,5-bis(4-N,N-diethylaminophenyl) imidazole]	5000	675
COC(=O)/C=C/c1ccc(-c2nc(-c3ccc(N)cc3)c(-c3ccc(N(C)C)cc3)[nH]2)cc1 [Example 51, 2-[4-(trans-methylpropenoate)phenyl]-4-[(4-N,N-dimethylamino)phenyl]-5-(4-aminophenyl) imidazole]	2600	480
CCN(CC)c1ccc(-c2[nH]c(-c3ccc(/C=C/C(=O)OC)cc3)nc2-c2ccc(N)cc2)cc1 [Example 52, 2-[4-(trans-methylpropenoate)phenyl]-4-[(4-N,N-diethylamino)phenyl]-5-(4-aminophenyl) imidazole]	2600	275
CNc1ccc(-c2nc(-c3ccc(/C=C/C(=O)OC)cc3)[nH]c2-c2ccc(F)cc2)cc1 [Example 53, 2-[4-(trans-methylpropenoate)phenyl]-4-[(4-N-methylamino)phenyl]-5-(4-fluorophenyl) imidazole]	6500	630

Second part, led by results:

EC50 [1] [nM]	SMILES	EC50 [2] [nM]
4900	CCN(CC)c1ccc(-c2nc(-c3ccc(/C=C/C(=O)OC)cc3)[nH]c2-c2ccc(N(C)C)cc2)cc1 [Example 50, 2-[4-(trans-methylpropenoate)phenyl]-4-[(4-N,N-diethylamino)phenyl]-5-[(4-N,N-dimethylamino)phenyl] imidazole]	225
4800	COC(=O)/C=C/c1cccc(-c2nc(-c3ccc(N(C)C)cc3)c(-c3ccc(N(C)C)cc3)[nH]2)c1 [Example 54, 2-[3-(trans-methylpropenoate)phenyl]-4,5-bis(4-N,N-dimethylaminophenyl) imidazole]	256
6000	COC(=O)/C=C/c1cc(-c2nc(-c3ccc(N(C)C)cc3)c(-c3ccc(N(C)C)cc3)[nH]2)ccc1OC [Example 55, 2-[4-methoxy-3-(trans-methylpropenoate)phenyl]-4,5-bis(4-N,N-dimethylaminophenyl) imidazole]	370
2800	COC(=O)/C=C/c1ccc(OC)c(-c2nc(-c3ccc(N(C)C)cc3)c(-c3ccc(N(C)C)cc3)[nH]2)c1 [Example 56, 2-[2-methoxy-5-(trans-methylpropenoate)phenyl]-4,5-bis(4-N,N-dimethylaminophenyl) imidazole]	126
2800	COC(=O)/C=C/c1cc(-c2nc(-c3ccc(N(C)C)cc3)c(-c3ccc(N(C)C)cc3)[nH]2)cc(OC)c1OC [Example 57, 2-[3,4-dimethoxy-5-(trans-methylpropenoate)phenyl]-4,5-bis(4-N,N-dimethylaminophenyl) imidazole]	453
2000	COC(=O)/C=C/c1cc(-c2nc(-c3ccc(N(C)C)cc3)c(-c3ccc(N(C)C)cc3)[nH]2)ccc1F [Example 58, 2-[4-fluoro-3-(trans-methylpropenoate)phenyl]-4,5-bis(4-N,N-dimethylaminophenyl) imidazole]	134
